Key:
p53 and FOXO4 = molecular target: T1, p53 and FOXO4 (Homo sapiens, UniProt P04637); assay: Immunofluorescence observation of cytoplasmic movement of p53; format: cell-based; settings: DI-treated aged skin fibroblasts; 100 ug/ml for 3 days; FIG. 4
T1 construct: endogenous in cells; host or cells: skin fibroblasts made senescent with doxorubicin and IGF-1 (DI model)
Method: It was confirmed through the immunofluorescence (IF) stain experiment whether or not this phenomenon was observed when the skin senescent cells were treated with the peptide having the amino acid sequence of SEQ ID NO: 1 according to an embodiment of the present invention. The aged skin fibroblasts treated with DI (Doxorubicin/IGF-1) were treated with the peptide 21a-D in the same manner as in Test Example 2, and then the expression and cytoplasmic movement of FOXO4 and p53 were observed.
Specifically, the skin fibroblasts were inoculated into a chamber slide (Thermo Fisher Scientific, USA) at 1×10^3 cells per well and cultured in a 5% CO2 incubator at 37° C. for 24 hours. The cultured wells were treated with each of Dox and IGF-1 in a concentration of 100 ng/ml for 4 days to induce early senescence of the skin fibroblasts, and then treated with the peptide 21a-D in a concentration of 100 ug/ml for 3 days followed by being further cultured. For immunofluorescence stain, the cell culture solution was washed with PBS three times and fixed by treating it with ice-cold methanol at −20° C. for 10 minutes. Next, it was added into PBS containing 3% BSA and left for 1 hour. […]

MMP-1 = MMP-1 expression in senescent cells by qPCR; format: cell-based, human; settings: DI model senescent cells, treated as in Test Example 2; FIG. 5
Method: After treating the DI model with the peptide (21a-D) consisting of the amino acid sequence of […] (SEQ ID NO: 1) and the peptide (FOXO4-DRI) consisting of the amino acid sequence of […] (SEQ ID NO: 4) in the same manner as in Test Example 2 above, an ability to suppress the expression of MMP-1 in the senescent cells was identified. After recovering the cultured cells, total RNA was isolated using a TRIzol™ solution (TRIzol™ Reagent, Invitrogen) extraction method. 1 μg of the isolated RNA was synthesized into cDNA using reverse transcriptase (RevertAid Firist strand cDNA synthesis kit, Thermofisher), and then diluted to a final concentration of 200 μl. In order to perform PCR, a mixing kit was prepared by mixing […] (Hs00899658_m1, ThermoFisher Scientific), 10 μl of Taqman universal master mix II with UNG (Applied Biosystems), and 5 μl of distilled water to allow the mixture to be diluted to 16 μl. 16 μl of the mixing kit and 4 μl of cDNA were mixed to perform qPCR under the following reaction conditions. The reaction conditions were 95° C., initialization reaction for 10 minutes, denaturation at 95° C. for 15 seconds, annealing at 60° C. for 60 seconds, and extension reaction at 50° C. for 20 seconds, which were set to be performed in a PCR device (7500 Fast Real-time PCR system, Applied Biosystems) with repetition of 40 times.

[1] = tested on: skin senescent cells (aged skin fibroblasts, DI model and RS model); assay: Survival rate of aged cells (CCK-8), selective apoptosis efficacy on skin senescent cells; format: cell-based, human; settings: 100 μg/ml for 3 days, FIG. 2; for selective apoptosis effect on the senescent cells versus normal cells: senescent versus normal skin fibroblasts; for apoptosis effect of senescent cells (survival rate of aged cells, CCK-8): DI model or RS model skin fibroblasts
Method: Specifically, in the case of the DI model, the skin fibroblasts (Normal human dermal fibroblasts, Lonza, Switzerland) were cultured in DMEM Medium (Lonza, Switzerland) containing 10% FBS, and then were inoculated into a chamber slide (Thermo Fisher Scientific, USA) at 1×10^3 cells per well and cultured in a CO2 incubator of 5% concentration at 37° C. for 24 hours. The cultured wells were treated with each of Doxorubicin-hydrochloride (Sigma) and IGF-1 (Sigma) in a concentration of 100 ng/ml for 4 days to induce early senescence of the skin fibroblasts. As a control group, the normal skin fibroblasts that were not treated with Dox or IGF-1 were prepared. Thereafter, for the immunofluorescence stain, the cell culture solution was washed with PBS three times and fixed in 4% paraformaldehyde for 30 minutes. Then, the skin fibroblast sample was washed with PBS containing 0.2% Triton X-100 three times, added to PBS containing 3% BSA, and left for 1 hour. Next, the sample was incubated in 1% BSA containing rabbit polyclonal anti-FOXO4 antibody (SAB4501887, Sigma) (1:500 dilution) at 4° C. overnight to allow the antibody to bind to an antigen contained in the skin fibroblasts. Thereafter, the Sample was washed with the PBS three times, incubated with Alexa Fluor®488-conjugated goat polyclonal secondary antibody (A32731, ThermoFisher Scientific) (1:1000 dilution) against rabbit IgG-H&L at a room temperature for 1 hour, and then washed with the PBS three times. Next, a drop of the mounting solution containing DAPI was placed on a microscope slide glass and fixed by raising the coverslip itself. The fixed sample was observed by a confocal microscope (LSM 980, Zeiss, Germany).
In the case of the RS model, the aged skin fibroblasts were prepared by continuously culturing skin fibroblasts (Normal human dermal fibroblasts, Lonza, Switzerland) in DMEM Medium (Lonza, Switzerland) containing 10% FBS over 30 to 40 times. For the immunofluorescence staining test, each of the aged skin fibroblasts (p41) and the normal skin fibroblasts was inoculated into a chamber slide (Thermo Fisher Scientific, USA) at 1×10^3 cells per well, and cultured in a CO2 incubator of 5% concentration at 37° C. for 48 hours. Thereafter, the cell culture solution was washed with PBS three times and fixed in 4% paraformaldehyde for 30 minutes. Next, the skin fibroblast sample was washed with PBS containing 0.2% Triton X-100 three times, added to PBS containing 3% BSA, and left for 1 hour. Then, the sample was incubated in 1% BSA containing a rabbit polyclonal anti-FOXO4 antibody (SAB4501887, Sigma) (1:500 dilution) at 4° C. overnight to allow the antibody to bind to an antigen contained in the skin fibroblasts. Thereafter, the sample was washed with the PBS three times, incubated with Alexa Fluor®488-conjugated goat polyclonal secondary antibody (A32731, ThermoFisher Scientific) (1:1000 dilution) against rabbit IgG-H&L at a room temperature for 1 hour, and then was washed with the PBS three times. […]
As in Test Example 1, after the skin fibroblasts (DI model) that induced senescence by treating with each of Doxorubicin and IGF-1 in a concentration of 100 ng/ml for 4 days or the fibroblasts (RS model) aged by culturing the skin fibroblasts up to passage 40 were treated with a peptide (21a-D) consisting of the amino acid sequence of […] […] ([…]) in each concentration of 100 μg/ml for 3 days, a survival rate of the aged cells was measured. […]

[2] = tested on: skin senescent cells (DI model and RS model); assay: SA-β-gal stain and microscopic observation of apoptosis efficacy on skin senescent cells; format: cell-based, human; settings: treated as in Test Example 2, FIGS. 3A and 3B
Method: In the same manner as that of Test Example 2, after the DI model and the RS model were treated with a peptide (21a-D) consisting of the amino acid sequence of […] (SEQ ID NO: 1) and a peptide (FOXO4-DRI) consisting of the amino acid sequence of […] (SEQ ID NO: 4), SA-3-gal (senescent associated-β-galactosidase) stain and microscopic observation were performed to visually confirm an apoptosis efficacy of the skin senescent cells. The SA-3-Gal stain was performed according to the protocol using the Senescence Cell Histochemical Staining Kit (CS0030, Sigma, USA), and after 24 hours of the staining, it was confirmed whether or not the cells were stained through an optical microscope.

T1 sequence (P04637 whole entry): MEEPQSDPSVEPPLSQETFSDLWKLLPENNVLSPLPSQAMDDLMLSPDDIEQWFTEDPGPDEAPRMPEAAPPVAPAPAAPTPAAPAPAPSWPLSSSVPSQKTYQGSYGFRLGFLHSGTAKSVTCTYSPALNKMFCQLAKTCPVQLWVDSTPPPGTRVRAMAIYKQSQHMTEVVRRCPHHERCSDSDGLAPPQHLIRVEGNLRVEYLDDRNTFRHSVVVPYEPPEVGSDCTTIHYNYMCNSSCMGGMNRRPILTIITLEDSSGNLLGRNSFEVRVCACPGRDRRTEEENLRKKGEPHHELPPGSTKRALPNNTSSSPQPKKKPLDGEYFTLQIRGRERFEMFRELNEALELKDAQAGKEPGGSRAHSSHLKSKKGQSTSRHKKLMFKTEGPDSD

Sequence | binding of p53 and FOXO4 in the nucleus (p53 and FOXO4) | cytoplasmic movement of p53 (immunofluorescence) (p53 and FOXO4) | expression of MMP-1 (qPCR, corrected for GAPDH) (MMP-1) | selective apoptosis effect on the senescent cells versus normal cells [1] | number of senescent cells (SA-β-gal stain, microscopic observation) [2] | apoptosis effect of senescent cells (survival rate of aged cells, CCK-8) [1]
AYSQNGWANRRRRGGRRRRRR [21a-D] | suppressed the binding of p53 and FOXO4 in the nucleus | p53 moved to a cytoplasm in the nucleus | suppressed | selective apoptosis of only skin senescent cells was induced | significantly reduced | 
LTLRKEPASEIAQSILEAYSQNGWANRRSGGKRPPPRRRQRRKKRG [FOXO4-DRI, reference compound] |  |  |  | weak |  | apoptosis effect had on the senescent cells as well as even on the normal cells
AYSQNGWANRRPRRRQRRKKRG [22a-D] |  |  |  |  |  | minimal
QRKKRRQRRRPRRNAWGNQSYA [22a-L] |  |  |  |  |  | minimal

From patent US20250017840A1, “NOVEL SENOTHERAPY PEPTIDE AND COMPOSITION CONTAINING THE SAME” (AMOREPACIFIC CORPORATION, priority 2023, published 2025)
